In US20110288014A1, “METHODS AND COMPOSITIONS FOR DIABETES TREATMENT AND PREVENTION” (TUM Technische Universitat Munchen, priority 2008, published 2011):
“Also recorded” adds a separate entry of the source.

What was measured:
[1] = test system: mouse adipocytes (cell line 3T3-L1); assay: 2-deoxyglucose (2-DG) uptake, resorufin assay; format: cell-based
Procedure: Mouse adipocytes (cell line 3T3-L1) as well as mouse myotubes (cell line C2C12) were cultivated under standard conditions and treated either with regular cell culture medium or insulin for 4 hours. Afterwards, cells were exposed to a combination of 2-deoxyglucose (2-DG) and the respective sample, either N-MP, coffee beverage (content of NMP in the coffee beverage: 26.7 mg/L) or a combination of both, for 2 hours. Then, cells were harvested and the 2-DG uptake was analyzed photometrically using the resorufin assay (Yamamoto, N.; Sato, T.; Kawasaki, K.; Murosaki, S.; Yamamoto, Y. A nonradioisotope, enzymatic assay for 2-deoxyglucose uptake in L6 skeletal muscle cells cultured in a 96-well microplate. Analytical Biochemistry 2006, 351, 139-145).

[2] = test system: mouse adipocytes (cell line 3T3-L1); assay: 2-deoxyglucose (2-DG) uptake, resorufin assay; format: cell-based; conditions: for 2-DG uptake: first ten minutes after incubation, nearly independent of concentration
[3] = sample alone, no insulin cotreatment, compared to control cells

Row | Compound | 2-deoxyglucose uptake in adipocytes ([1]; in combination with insulin) | 2-deoxyglucose uptake in adipocytes [1, 3] | also measured
1 | CCCCCCCCCCCCCCCC[n+]1ccccc1 [N-cetylpyridinium iodide] | excellent effects | excellent effects | 2-DG uptake ([2]; alone (FIG. 16 left panel)): excellent results; 2-DG uptake ([2]; co-treatment with insulin (FIG. 16 right panel)): excellent results
2 | Cc1cc[n+](C)cc1 [N-4-Methylpicolinium] | substantial increase | substantial increase | 2-DG uptake ([1]; alone or in combination with insulin, independently from the concentration used (FIGS. 10 and 11)): higher than 100%; 2-DG uptake ([1]; in some cases (FIG. 11, concurrent use of insulin)): > 200%
3 | C[n+]1ccccc1.[I-] [N-methylpyridinium iodide] | improved | – | –
4 | CC[n+]1ccccc1 [N-ethylpyridinium iodide] | – | good results | –
5 | Cc1ccc[n+](C)c1 [N-3-Methylpicolinium iodide] | – | substantial improvement | –
6 | N-methylpyridinium [N-MP] | significantly enhance the effect of insulin | increased; also recorded: best results and effects | effectiveness of insulin on 2-deoxyglucose uptake ([1]; FIG. 5, in combination with coffee beverage and insulin): greatly enhance the effectiveness of insulin; 2-deoxyglucose uptake in adipocytes ([1]; sample alone, no insulin cotreatment, compared to control cells, listed as N-Methylpyridinium): enhance the uptake of 2-deoxyglucose in mouse adipocytes similarly insulin; 2-DG uptake by mouse adipocytes ([2]; FIG. 2, in combination with insulin, treatment times 1 min and 10 min, compared with insulin alone): statistically higher extent than insulin alone
